Experiment [1] has as its target Proto-oncogene tyrosine-protein kinase Src (Gallus gallus, UniProt P00523). Description: Ability to prevent phosphorylation of avian c-Src TK.
In experiment [2] the target is Fibroblast growth factor receptor 1 (Homo sapiens, UniProt P11362).
Description: Ability to prevent phosphorylation of human fibroblast growth factor receptor 1
Experiment [3] deals with Platelet-derived growth factor receptor beta (Mus musculus, UniProt P05622). Description: Ability to prevent phosphorylation of isolated mouse PDGF receptor beta.

SMILES strings stand for the structures.

Sequence of Fibroblast growth factor receptor 1 (P11362 whole entry): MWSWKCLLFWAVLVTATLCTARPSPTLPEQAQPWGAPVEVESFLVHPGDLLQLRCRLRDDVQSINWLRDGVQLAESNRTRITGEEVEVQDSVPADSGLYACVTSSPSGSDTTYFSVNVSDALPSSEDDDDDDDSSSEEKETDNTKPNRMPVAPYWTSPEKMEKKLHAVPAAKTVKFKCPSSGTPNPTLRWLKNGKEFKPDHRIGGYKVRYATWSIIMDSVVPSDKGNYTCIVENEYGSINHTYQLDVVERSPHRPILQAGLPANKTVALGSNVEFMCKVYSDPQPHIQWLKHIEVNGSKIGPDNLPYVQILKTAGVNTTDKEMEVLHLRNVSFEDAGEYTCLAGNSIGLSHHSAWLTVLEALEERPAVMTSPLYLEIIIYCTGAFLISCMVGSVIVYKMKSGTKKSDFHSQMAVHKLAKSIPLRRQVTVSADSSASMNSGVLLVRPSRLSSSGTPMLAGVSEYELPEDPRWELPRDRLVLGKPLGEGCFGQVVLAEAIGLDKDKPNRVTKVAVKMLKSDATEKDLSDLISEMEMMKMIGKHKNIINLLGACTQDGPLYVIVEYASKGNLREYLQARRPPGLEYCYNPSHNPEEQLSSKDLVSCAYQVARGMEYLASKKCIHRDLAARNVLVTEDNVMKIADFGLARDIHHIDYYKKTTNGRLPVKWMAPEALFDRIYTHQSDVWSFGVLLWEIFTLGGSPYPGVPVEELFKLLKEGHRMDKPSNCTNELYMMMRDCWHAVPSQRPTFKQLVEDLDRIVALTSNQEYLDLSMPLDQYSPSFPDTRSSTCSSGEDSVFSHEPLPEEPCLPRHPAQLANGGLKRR
Sequence of Platelet-derived growth factor receptor beta (P05622 whole entry): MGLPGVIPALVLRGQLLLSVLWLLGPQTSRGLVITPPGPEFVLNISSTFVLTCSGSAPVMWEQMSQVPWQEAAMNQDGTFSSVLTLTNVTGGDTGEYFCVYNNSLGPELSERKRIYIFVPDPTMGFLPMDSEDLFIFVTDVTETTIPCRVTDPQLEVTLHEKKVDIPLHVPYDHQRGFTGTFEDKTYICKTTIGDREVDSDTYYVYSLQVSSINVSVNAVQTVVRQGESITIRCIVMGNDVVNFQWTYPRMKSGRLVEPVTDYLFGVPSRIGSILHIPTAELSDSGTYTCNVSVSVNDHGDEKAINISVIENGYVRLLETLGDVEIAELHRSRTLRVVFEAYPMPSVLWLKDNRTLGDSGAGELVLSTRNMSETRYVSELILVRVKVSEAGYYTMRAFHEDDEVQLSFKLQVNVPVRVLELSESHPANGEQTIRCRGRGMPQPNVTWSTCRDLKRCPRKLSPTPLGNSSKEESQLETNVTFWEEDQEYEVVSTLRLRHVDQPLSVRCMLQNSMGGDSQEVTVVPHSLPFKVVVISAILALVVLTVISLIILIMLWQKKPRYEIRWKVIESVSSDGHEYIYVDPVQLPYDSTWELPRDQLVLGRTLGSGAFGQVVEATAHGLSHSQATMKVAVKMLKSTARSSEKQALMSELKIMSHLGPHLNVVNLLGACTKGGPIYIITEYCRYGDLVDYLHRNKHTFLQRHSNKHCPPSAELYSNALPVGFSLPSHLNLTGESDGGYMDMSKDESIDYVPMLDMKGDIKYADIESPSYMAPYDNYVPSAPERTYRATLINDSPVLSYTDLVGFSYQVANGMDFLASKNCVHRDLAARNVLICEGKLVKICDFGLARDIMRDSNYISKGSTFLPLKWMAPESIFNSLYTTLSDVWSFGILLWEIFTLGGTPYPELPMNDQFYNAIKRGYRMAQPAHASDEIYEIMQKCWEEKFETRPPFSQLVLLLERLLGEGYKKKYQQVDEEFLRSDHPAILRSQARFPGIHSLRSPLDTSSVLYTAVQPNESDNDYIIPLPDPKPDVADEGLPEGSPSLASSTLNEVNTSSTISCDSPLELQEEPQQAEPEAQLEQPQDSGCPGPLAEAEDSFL

The IC50 is the midpoint of a concentration-inhibition curve. High values mean a need for much substance, low ones inhibition by little substance. For the compound `CN1CCN(CCCNc2ncc3cc(-c4c(Cl)cccc4Cl)c(NC(N)=O)nc3n2)CC1`, the IC50 was 61 nM in experiment [1], 140 nM in experiment [2] and 2.4 µM in experiment [3].

For `CCN(CC)CCCNc1ncc2cc(-c3c(C)cccc3C)c(NC(=O)NC(C)(C)C)nc2n1`, the values for the IC50 in experiment [1] and in experiment [2] were 98 nM and 340 nM, respectively.

In the case of `C=CCNC(=O)Nc1nc2nc(NCCCN3CCN(C)CC3)ncc2cc1-c1c(Cl)cccc1Cl`, the IC50 in experiment [1] was determined as 22 nM; in experiment [2], 35 nM; in experiment [3], 0.76 µM.

In the case of `CCN(CC)C(=O)Nc1nc2nc(NCCCN3CCN(C)CC3)ncc2cc1-c1c(Cl)cccc1Cl`, the half-maximal inhibitory concentration (IC50) in experiment [1] was more than 50000 nM; in experiment [2], 5500 nM; in experiment [3] it was more than 50 µM.

As for `CCN(CC)CCCCNc1ncc2cc(-c3c(Cl)cccc3Cl)c(NC(=O)NC3CCCCC3)nc2n1`, the IC50 was found to be 12 nM in experiment [1], 43 nM in experiment [2] and 0.33 µM in experiment [3].

For the compound `Cc1ccc(NC(=O)Nc2nc3nc(NCCCN4CCN(C)CC4)ncc3cc2-c2c(Cl)cccc2Cl)cc1`, the IC50 was 36 nM in experiment [1], 110 nM in experiment [2] and 0.84 µM in experiment [3].

Consider `Cc1cc(C)c(C)c(-c2cc3cnc(N)nc3nc2N)c1C`, for which the concentration for half-maximal inhibition (IC50) in experiment [1] is more than 50000 nM; in experiment [2], more than 50000 nM; in experiment [3], more than 50 µM.

With `CN(C)CCCNc1ncc2cc(-c3c(Cl)cccc3Cl)c(NC(=O)NC(C)(C)C)nc2n1`, in experiment [1], the IC50 came out at 120 nM.

On to `CN1CCN(CCCNc2ncc3cc(-c4c(Cl)cccc4Cl)c(NC(=O)Nc4ccc(C(F)(F)F)cc4)nc3n2)CC1`, for which the figures for the concentration for half-maximal inhibition (IC50) in experiment [1] and in experiment [3] were 190 nM and 5.5 µM, respectively.

For the compound `CN1CCN(CCCNc2ncc3cc(-c4c(Cl)cccc4Cl)c(N)nc3n2)CC1`, the figures for the IC50 in experiment [1], in experiment [2] and in experiment [3] were 180 nM, 450 nM and 9.6 µM, respectively.

In turn, `COc1ccc(NC(=O)Nc2nc3nc(NCCCN4CCN(C)CC4)ncc3cc2-c2c(Cl)cccc2Cl)cc1` yielded an IC50 in experiment [1] of 33 nM.

Consider `CCN(CC)CCCNc1ncc2cc(-c3c(Cl)cccc3Cl)c(NC(=O)NC(C)(C)C)nc2n1`, for which the IC50 in experiment [1] came to 73 nM.

In the case of `CC(C)NC(=Nc1nc2nc(NCCCN3CCN(C)CC3)ncc2cc1-c1c(Cl)cccc1Cl)NC(C)C`, the IC50 in experiment [1] amounted to 850 nM; in experiment [2], 2500 nM.

In the case of `CN1CCN(CCCNc2ncc3cc(-c4c(Cl)cccc4Cl)c(NC(=O)Nc4ccc(Cl)c(Cl)c4)nc3n2)CC1`, the values for the IC50 in experiment [1], in experiment [2] and in experiment [3] were 92 nM, 600 nM and 5 µM, respectively.

The compound `COc1cc(OC)cc(-c2cc3cnc(N)nc3nc2NC(=O)NC(C)(C)C)c1` displayed a 50% inhibitory concentration (IC50) in experiment [2] of 48 nM.

As for `CC(C)(C)NC(=O)Nc1nc2nc(N)ncc2cc1-c1c(Br)cccc1Br`, the concentration for half-maximal inhibition (IC50) amounted to 210 nM in experiment [1] and 1.4 µM in experiment [3].

`CN1CCN(CCCNc2ncc3cc(-c4c(Cl)cccc4Cl)c(N=C(N)Nc4ccccc4)nc3n2)CC1`: the IC50 in experiment [1] stood at 860 nM; in experiment [2], 2800 nM; in experiment [3], 37 µM.

In experiment [1], `CCN(CC)CCCNc1ncc2cc(-c3c(Cl)cccc3Cl)c(N)nc2n1` displayed an IC50 of 750 nM.

With `CCCC(=O)Nc1nc2nc(NCCCN3CCN(C)CC3)ncc2cc1-c1c(Cl)cccc1Cl`, the IC50 in experiment [1] was 2700 nM; in experiment [2] it was 3700 nM; in experiment [3], more than 50 µM.

Consider `CCNC(=O)Nc1nc2nc(NCCCN(CC)CC)ncc2cc1-c1c(Cl)cccc1Cl`, for which the IC50 in experiment [1] came out at 94 nM; in experiment [2] it was 130 nM; in experiment [3], 1.3 µM.

Take `COc1ccccc1NC(=O)Nc1nc2nc(NCCCN3CCN(C)CC3)ncc2cc1-c1c(Cl)cccc1Cl`: the IC50 stood at 16 nM in experiment [1], 67 nM in experiment [2] and 0.66 µM in experiment [3].

Regarding `CN1CCN(CCCNc2ncc3cc(-c4c(Cl)cccc4Cl)c(NS(=O)(=O)c4ccccc4)nc3n2)CC1`, the values for the IC50 in experiment [1], in experiment [2] and in experiment [3] were 22 nM, 68 nM and 6.9 µM, respectively.

As to `CCCCCCCCNC(=O)Nc1nc2nc(NCCCN3CCN(C)CC3)ncc2cc1-c1c(Cl)cccc1Cl`, the IC50 in experiment [1] came out at 120 nM; in experiment [2] it was 420 nM.

For `CN1CCN(CCCNc2ncc3cc(-c4c(Cl)cccc4Cl)c(NC(=S)Nc4ccccc4)nc3n2)CC1`, the figures for the IC50 in experiment [1], in experiment [2] and in experiment [3] were 22 nM, 320 nM and 2.2 µM, respectively.

Turning to `CCN(CC)CCCNc1ncc2cc(-c3c(Cl)cccc3Cl)c(NC(=O)CC(C)(C)C)nc2n1`, the IC50 is 19000 nM in experiment [1], 27000 nM in experiment [2] and more than 50 µM in experiment [3].

Consider `CN(C)CCNC(=O)Nc1nc2nc(NCCCN3CCN(C)CC3)ncc2cc1-c1c(Cl)cccc1Cl`, for which the IC50 in experiment [1] was determined as 20 nM; in experiment [2], 75 nM; in experiment [3], 2.4 µM.

As for `CC1CCCCN1CCCNc1ncc2cc(-c3c(Cl)cccc3Cl)c(NC(=O)NC(C)(C)C)nc2n1` (configuration not stated), the IC50 in experiment [1] amounted to 16 nM; in experiment [3], 0.73 µM.

Turning to `CN1CCN(CCCCNc2ncc3cc(-c4c(Cl)cccc4Cl)c(NC(=O)NC(C)(C)C)nc3n2)CC1`, the IC50 amounted to 10 nM in experiment [1] and 0.28 µM in experiment [3].

On to `CC(C)(C)NC(=O)Nc1nc2nc(NCCCN3CCOCC3)ncc2cc1-c1c(Cl)cccc1Cl`, for which the IC50 in experiment [1] was determined as 100 nM.

On to `CN1CCN(CCCNc2ncc3cc(-c4c(Cl)cccc4Cl)c(NC(=O)Nc4cccc5ccccc45)nc3n2)CC1`, for which the IC50 in experiment [1] came to 130 nM; in experiment [2], 300 nM.

`CN1CCN(CCCNc2ncc3cc(-c4c(Cl)cccc4Cl)c(NC(=O)Nc4ccc(Br)cc4)nc3n2)CC1`: the IC50 in experiment [1] turned out to be 33 nM; in experiment [2] it was 110 nM; in experiment [3], 1.5 µM.

For the compound `CCN(CC)CCCCNc1ncc2cc(-c3c(Cl)cccc3Cl)c(NC(=S)NCCCN3CCOCC3)nc2n1`, the IC50 in experiment [1] is 22 nM; in experiment [2], 130 nM; in experiment [3], 1.1 µM.

Consider `Cc1cc(C)c(C)c(-c2cc3cnc(N)nc3nc2NC(=O)NC(C)(C)C)c1C`, for which the IC50 is more than 50000 nM in experiment [1] and more than 50 µM in experiment [3].

Turning to `CN(C)CCCN(C)c1ncc2cc(-c3c(Cl)cccc3Cl)c(NC(=O)NC(C)(C)C)nc2n1`, the figures for the 50% inhibitory concentration (IC50) in experiment [1], in experiment [2] and in experiment [3] were 1100 nM, 2000 nM and 16 µM, respectively.

In experiment [1], `COc1cc(OC)cc(-c2cc3cnc(N)nc3nc2N)c1` yielded an IC50 of more than 50000 nM.

As for `CCN(CC)CCCNc1ncc2cc(-c3c(Br)cccc3Br)c(N)nc2n1`, the values for the IC50 in experiment [1], in experiment [2] and in experiment [3] were 760 nM, 8300 nM and more than 50 µM, respectively.

For `CCN(CC)CCCNc1ncc2cc(-c3c(Cl)cccc3Cl)c(NC(=O)NC(C)C)nc2n1`, half-maximal inhibition in experiment [1] (IC50) required 78 nM.

As for `CCN(CC)CCCNc1ncc2cc(-c3c(Cl)cccc3Cl)c(/N=C\N(C)C)nc2n1`, the IC50 in experiment [1] was 4000 nM; in experiment [2], 10000 nM; in experiment [3] it was more than 50 µM.

As for `CCN(CC)CCCNc1ncc2cc(-c3c(C)cccc3C)c(N)nc2n1`, the IC50 is 450 nM in experiment [1], 18000 nM in experiment [2] and 25 µM in experiment [3].

For `CC(C)(C)NC(=O)Nc1nc2nc(N)ncc2cc1-c1c(Cl)cccc1Cl`, the IC50 in experiment [1] came to 220 nM; in experiment [3], 1.2 µM.

On to `CN1CCN(CCCNc2ncc3cc(-c4c(Cl)cccc4Cl)c(NC(=O)NCCNC(=O)OC(C)(C)C)nc3n2)CC1`, for which the results for the IC50 in experiment [1], in experiment [2] and in experiment [3] were 150 nM, 67 nM and 4.2 µM, respectively.

For the compound `CCN(CC)CCNc1ncc2cc(-c3c(Cl)cccc3Cl)c(NC(=O)NC(C)(C)C)nc2n1`, the results for the IC50 in experiment [1], in experiment [2] and in experiment [3] were 4100 nM, 1800 nM and 9 µM, respectively.

In the case of `Nc1ncc2cc(-c3c(Br)cccc3Br)c(N)nc2n1`, half-maximal inhibition in experiment [1] (IC50) was put at 1600 nM.

`CN1CCN(CCCNc2ncc3cc(-c4c(Cl)cccc4Cl)c(NC(=O)NC45C[C@H]6C[C@@H](C4)C[C@@H](C5)C6)nc3n2)CC1`: the IC50 in experiment [1] stood at 120 nM; in experiment [2] it was 120 nM; in experiment [3], 2.8 µM.

As for `CCNC(=O)Nc1nc2nc(NCCN(CC)CC)ncc2cc1-c1c(Cl)cccc1Cl`, the IC50 in experiment [1] is 2600 nM; in experiment [2], 1300 nM; in experiment [3] it was 12 µM.

`CCN(CC)CCCNc1ncc2cc(-c3c(Br)cccc3Br)c(NC(=O)NC(C)(C)C)nc2n1`: the IC50 in experiment [1] was found to be 97 nM; in experiment [2], 190 nM; in experiment [3], 1.1 µM.

For `CN1CCN(CCCNc2ncc3cc(-c4c(Cl)cccc4Cl)c(/N=C(/S)NC(C)(C)C)nc3n2)CC1`, the IC50 in experiment [1] amounted to 220 nM; in experiment [2], 100 nM.

As for `Nc1ncc2cc(-c3c(Cl)cccc3Cl)c(N)nc2n1`, the IC50 in experiment [1] was 210 nM; in experiment [3] it was 16 µM.

For the compound `Cc1cccc(C)c1-c1cc2cnc(N)nc2nc1N`, the results for the IC50 in experiment [1], in experiment [2] and in experiment [3] were 430 nM, 13000 nM and 29 µM, respectively.

With `CN1CCN(CCCNc2ncc3cc(-c4c(Cl)cccc4Cl)c(NC(=O)Nc4ccc(Cl)cc4)nc3n2)CC1`, the figures for the IC50 in experiment [1], in experiment [2] and in experiment [3] were 40 nM, 120 nM and 1.8 µM, respectively.

Consider `CN(C)CC(C)(C)CNc1ncc2cc(-c3c(Cl)cccc3Cl)c(NC(=O)NC(C)(C)C)nc2n1`, for which the values for the IC50 in experiment [1], in experiment [2] and in experiment [3] were 3500 nM, 210 nM and 3.2 µM, respectively.

Turning to `CN1CCN(CCCNc2ncc3cc(-c4c(Cl)cccc4Cl)c(NC(=O)Cc4ccccc4)nc3n2)CC1`, the results for the IC50 in experiment [1], in experiment [2] and in experiment [3] were 3300 nM, 6800 nM and more than 50 µM, respectively.

Turning to `CC/N=C(\N)Nc1nc2nc(NCCCN(CC)CC)ncc2cc1-c1c(Cl)cccc1Cl`, the IC50 in experiment [1] is 1400 nM; in experiment [2], 2700 nM; in experiment [3], more than 50 µM.

Turning to `CN1CCN(CCCNc2ncc3cc(-c4c(Cl)cccc4Cl)c(NC(=O)CC(C)(C)C)nc3n2)CC1`, the IC50 was 8400 nM in experiment [1], 8000 nM in experiment [2] and more than 50 µM in experiment [3].

Consider `CCNC(=S)Nc1nc2nc(NCCCN(CC)CC)ncc2cc1-c1c(Cl)cccc1Cl`, for which the results for the IC50 in experiment [1], in experiment [2] and in experiment [3] were 130 nM, 260 nM and 5 µM, respectively.

`COc1cccc(NC(=O)Nc2nc3nc(NCCCN4CCN(C)CC4)ncc3cc2-c2c(Cl)cccc2Cl)c1`: the values for the IC50 in experiment [1] and in experiment [3] were 29 nM and 0.91 µM, respectively.

Source of the values: ChEMBL document CHEMBL1134497, “Soluble 2-substituted aminopyrido[2,3-d]pyrimidin-7-yl ureas. Structure-activity relationships against selected tyrosine kinases and exploration of in vitro and in vivo anticancer activity” (J Med Chem, 2001).
